Assay results from a compilation of properties of binary mixtures (doi:10.1021/acs.jced.9b00769).

Assay: xn = mol fraction of the nth substance listed
Details: 100 kPa

CCCC[P+](CC)(CC)CC.N#Cc1ccc[n-]1 + OCCN(CCO)CCO
Details	electrical conductivity, 293.15 K [S/m]	viscosity, 293.15 K [mPa·s]	viscosity, 298.15 K [mPa·s]	viscosity, 303.15 K [mPa·s]	viscosity, 313.15 K [mPa·s]
x1 = 0.002	0.0007	–	–	–	–
x1 = 0.007	0.0017	–	–	–	–
x1 = 0.009	0.0022	–	–	–	–
x1 = 0.018	0.0036	960	–	410	188
x1 = 0.023	0.0041	–	–	–	–
x1 = 0.029	–	–	633	408	184
x1 = 0.047	0.0055	–	–	–	–
x1 = 0.059	0.0059	1010	660	426	191
x1 = 0.089	0.0068	970	636	410	185
x1 = 0.104	–	940	614	397	177
x1 = 0.123	0.0077	–	–	–	–
x1 = 0.223	–	–	530	–	155
x1 = 0.272	0.0115	–	–	–	–
x1 = 0.413	–	680	439	284	136
x1 = 0.508	–	647	426	–	132
x1 = 0.537	0.0248	–	–	–	–
x1 = 0.763	0.0489	478	318	210	106
x1 = 1	0.147	187	137	104	62

CCCCCCCCCCCC[P+](CCCC)(CCCC)CCCC.N#Cc1ccc[n-]1 + OCCN(CCO)CCO
Details	electrical conductivity [S/m]	viscosity [mPa·s]
293.15 K, x1 = 0.003	0.0006	–
293.15 K, x1 = 0.004	0.0008	–
293.15 K, x1 = 0.005	0.0011	–
293.15 K, x1 = 0.007	0.0014	–
293.15 K, x1 = 0.01	0.0019	–
293.15 K, x1 = 0.017	–	980
293.15 K, x1 = 0.022	0.003	–
293.15 K, x1 = 0.027	0.0032	–
293.15 K, x1 = 0.042	0.0036	–
293.15 K, x1 = 0.054	0.0038	1054
293.15 K, x1 = 0.075	0.0041	–
293.15 K, x1 = 0.177	0.0038	1025
293.15 K, x1 = 0.244	0.0039	970
293.15 K, x1 = 0.325	0.0041	930
293.15 K, x1 = 0.431	0.0043	830
293.15 K, x1 = 0.755	0.0057	680
298.15 K, x1 = 0.017	–	654
298.15 K, x1 = 0.054	–	680
298.15 K, x1 = 0.096	–	690
298.15 K, x1 = 0.121	–	690
298.15 K, x1 = 0.177	–	680
298.15 K, x1 = 0.244	–	646
298.15 K, x1 = 0.431	–	569
298.15 K, x1 = 0.538	–	532
303.15 K, x1 = 0.035	–	435
303.15 K, x1 = 0.096	–	452
303.15 K, x1 = 0.121	–	450
303.15 K, x1 = 0.177	–	450
303.15 K, x1 = 0.244	–	432
303.15 K, x1 = 0.431	–	391
303.15 K, x1 = 0.538	–	370
313.15 K, x1 = 0.017	–	205
313.15 K, x1 = 0.035	–	205
313.15 K, x1 = 0.054	–	208
313.15 K, x1 = 0.121	–	216
313.15 K, x1 = 0.177	–	219
313.15 K, x1 = 0.244	–	211
313.15 K, x1 = 0.431	–	200
313.15 K, x1 = 0.538	–	194
313.15 K, x1 = 0.755	–	182
313.15 K, x1 = 1	–	166
